Assay results published in PubChem BioAssay (NCI).
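Values below derive from 48-hour exposures of cells grown in 96-well plates, with endpoints linearly interpolated between the two concentrations bracketing the appropriate inhibition level. At the GI50, growth is halved. TGI is the concentration that stops growth completely.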

Assays:
Assay in all cases: growth of human tumour cells (NCI), 48 h
SK-MEL-2 melanoma = test system: SK-MEL-2 melanoma
OVCAR-8 ovarian = test system: OVCAR-8 ovarian
HT29 colon = test system: HT29 colon
HS 578T breast = test system: HS 578T breast
NCI-H522 lung = test system: NCI-H522 lung
SK-MEL-5 melanoma = test system: SK-MEL-5 melanoma
SR leukemia = test system: SR leukemia
OVCAR-4 ovarian = test system: OVCAR-4 ovarian
SK-MEL-28 melanoma = test system: SK-MEL-28 melanoma
NCI/ADR-RES ovarian = test system: NCI/ADR-RES ovarian
K-562 leukemia = test system: K-562 leukemia
NCI-H460 lung = test system: NCI-H460 lung
SF-268 CNS = test system: SF-268 CNS
TK-10 renal = test system: TK-10 renal
BT-549 breast = test system: BT-549 breast
DU-145 prostate = test system: DU-145 prostate
A498 renal = test system: A498 renal
SF-295 CNS = test system: SF-295 CNS
CAKI-1 renal = test system: CAKI-1 renal
EKVX NSCLC = test system: EKVX NSCLC
RPMI-8226 leukemia = test system: RPMI-8226 leukemia
MOLT-4 leukemia = test system: MOLT-4 leukemia
MCF7 breast = test system: MCF7 breast
MALME-3M melanoma = test system: MALME-3M melanoma
SNB-75 CNS = test system: SNB-75 CNS
M14 melanoma = test system: M14 melanoma
NCI-H226 lung = test system: NCI-H226 lung
KM12 colon = test system: KM12 colon
MDA-MB-435 = test system: MDA-MB-435
HL-60(TB) leukemia = test system: HL-60(TB) leukemia
SNB-19 CNS = test system: SNB-19 CNS
PC-3 prostate = test system: PC-3 prostate
786-0 renal = test system: 786-0 renal
SN12C renal = test system: SN12C renal
OVCAR-5 ovarian = test system: OVCAR-5 ovarian
IGROV1 ovarian = test system: IGROV1 ovarian
UO-31 renal = test system: UO-31 renal
HOP-92 NSCLC = test system: HOP-92 NSCLC
SK-OV-3 ovarian = test system: SK-OV-3 ovarian
COLO 205 colon = test system: COLO 205 colon
ACHN renal = test system: ACHN renal
RXF 393 renal = test system: RXF 393 renal
HCC-2998 colon = test system: HCC-2998 colon
T-47D breast = test system: T-47D breast
SF-539 CNS = test system: SF-539 CNS
LOX IMVI melanoma = test system: LOX IMVI melanoma
A549 NSCLC = test system: A549 NSCLC
HCT-116 colon = test system: HCT-116 colon
U251 CNS = test system: U251 CNS
HOP-62 NSCLC = test system: HOP-62 NSCLC
SW-620 colon = test system: SW-620 colon
MDA-MB-231 breast = test system: MDA-MB-231 breast
HCT-15 colon = test system: HCT-15 colon
UACC-257 melanoma = test system: UACC-257 melanoma
CCRF-CEM leukemia = test system: CCRF-CEM leukemia
NCI-H23 lung = test system: NCI-H23 lung
UACC-62 melanoma = test system: UACC-62 melanoma

Work on `O=C(NNc1nc2cc(F)ccc2n2c(CO)ccc12)c1cnccn1` yielded a GI50 (SK-MEL-2 melanoma) of 1900 nM, a TGI (SK-MEL-2 melanoma) of 56400 nM and a GI50 (OVCAR-8 ovarian) of 343 nM. It also gave a TGI (OVCAR-8 ovarian) of over 31900 nM, a GI50 (HT29 colon) of 552 nM and a TGI (HT29 colon) of over 100000 nM. The GI50 (HS 578T breast) was 4310 nM, the TGI (HS 578T breast) was over 100000 nM and the GI50 (NCI-H522 lung) was 1010 nM. For the same molecule, the TGI (NCI-H522 lung) was 8070 nM, the GI50 (SK-MEL-5 melanoma) was 481 nM and the TGI (SK-MEL-5 melanoma) was 3610 nM. It also gave a GI50 (SR leukemia) of 448 nM, a TGI (SR leukemia) of over 100000 nM and a GI50 (OVCAR-4 ovarian) of 534 nM. For the same molecule, the TGI (OVCAR-4 ovarian) was over 83100 nM, the GI50 (SK-MEL-28 melanoma) was 595 nM and the TGI (SK-MEL-28 melanoma) was over 100000 nM. For the same molecule, the GI50 (NCI/ADR-RES ovarian) was 243 nM, the TGI (NCI/ADR-RES ovarian) was over 24900 nM and the GI50 (K-562 leukemia) was 508 nM. It also gave a TGI (K-562 leukemia) of over 100000 nM, a GI50 (NCI-H460 lung) of 245 nM and a TGI (NCI-H460 lung) of 11000 nM. It also gave a GI50 (SF-268 CNS) of 516 nM, a TGI (SF-268 CNS) of over 100000 nM and a GI50 (TK-10 renal) of 504 nM. It also gave a TGI (TK-10 renal) of over 100000 nM, a GI50 (BT-549 breast) of 667 nM and a GI50 (DU-145 prostate) of 780 nM. For the same molecule, the TGI (DU-145 prostate) was over 100000 nM, the GI50 (A498 renal) was 1160 nM and the TGI (A498 renal) was 4990 nM. The GI50 (SF-295 CNS) was 295 nM, the TGI (SF-295 CNS) was over 100000 nM and the GI50 (CAKI-1 renal) was 281 nM. It also gave a TGI (CAKI-1 renal) of over 100000 nM, a GI50 (EKVX NSCLC) of 408 nM and a TGI (EKVX NSCLC) of over 57200 nM. For the same molecule, the GI50 (RPMI-8226 leukemia) was 721 nM, the TGI (RPMI-8226 leukemia) was over 57600 nM and the GI50 (MOLT-4 leukemia) was 407 nM. The TGI (MOLT-4 leukemia) was over 100000 nM, the GI50 (MCF7 breast) was 541 nM and the TGI (MCF7 breast) was 36000 nM. It also gave a GI50 (MALME-3M melanoma) of 1070 nM, a TGI (MALME-3M melanoma) of 20200 nM and a GI50 (SNB-75 CNS) of 986 nM. It also gave a TGI (SNB-75 CNS) of 27300 nM, a GI50 (M14 melanoma) of 292 nM and a TGI (M14 melanoma) of 4050 nM. For the same molecule, the GI50 (NCI-H226 lung) was 367 nM, the TGI (NCI-H226 lung) was 10800 nM and the GI50 (KM12 colon) was 432 nM. For the same molecule, the TGI (KM12 colon) was over 100000 nM, the GI50 (MDA-MB-435) was 712 nM and the TGI (MDA-MB-435) was over 100000 nM. It also gave a GI50 (HL-60(TB) leukemia) of 435 nM, a TGI (HL-60(TB) leukemia) of over 38000 nM and a GI50 (SNB-19 CNS) of 665 nM. It also gave a TGI (SNB-19 CNS) of over 100000 nM, a GI50 (PC-3 prostate) of 780 nM and a TGI (PC-3 prostate) of over 100000 nM. It also gave a GI50 (786-0 renal) of 387 nM, a TGI (786-0 renal) of 11900 nM and a GI50 (SN12C renal) of 704 nM. It also gave a TGI (SN12C renal) of over 100000 nM, a GI50 (OVCAR-5 ovarian) of 1360 nM and a TGI (OVCAR-5 ovarian) of over 100000 nM. For the same molecule, the GI50 (IGROV1 ovarian) was 509 nM, the TGI (IGROV1 ovarian) was 29500 nM and the GI50 (UO-31 renal) was 68.9 nM. The TGI (UO-31 renal) was 5050 nM, the GI50 (HOP-92 NSCLC) was 1400 nM and the TGI (HOP-92 NSCLC) was 63800 nM. The GI50 (SK-OV-3 ovarian) was 543 nM, the TGI (SK-OV-3 ovarian) was 18200 nM and the GI50 (COLO 205 colon) was 368 nM. For the same molecule, the TGI (COLO 205 colon) was over 38500 nM, the GI50 (ACHN renal) was 111 nM and the TGI (ACHN renal) was 12200 nM. The GI50 (RXF 393 renal) was 557 nM, the TGI (RXF 393 renal) was 10000 nM and the GI50 (HCC-2998 colon) was 568 nM. For the same molecule, the TGI (HCC-2998 colon) was over 100000 nM, the GI50 (T-47D breast) was 837 nM and the TGI (T-47D breast) was over 52600 nM. It also gave a GI50 (SF-539 CNS) of 489 nM, a TGI (SF-539 CNS) of over 100000 nM and a GI50 (LOX IMVI melanoma) of 317 nM. For the same molecule, the TGI (LOX IMVI melanoma) was 4080 nM, the GI50 (A549 NSCLC) was 471 nM and the TGI (A549 NSCLC) was over 55800 nM. For the same molecule, the GI50 (HCT-116 colon) was 345 nM, the TGI (HCT-116 colon) was over 42900 nM and the GI50 (U251 CNS) was 390 nM. The TGI (U251 CNS) was over 100000 nM, the GI50 (HOP-62 NSCLC) was 344 nM and the TGI (HOP-62 NSCLC) was over 32800 nM. For the same molecule, the GI50 (SW-620 colon) was 649 nM, the TGI (SW-620 colon) was over 100000 nM and the GI50 (MDA-MB-231 breast) was 633 nM. The TGI (MDA-MB-231 breast) was over 100000 nM, the GI50 (HCT-15 colon) was 69.1 nM and the TGI (HCT-15 colon) was over 45700 nM. The GI50 (UACC-257 melanoma) was 1160 nM, the TGI (UACC-257 melanoma) was 6050 nM and the GI50 (CCRF-CEM leukemia) was 395 nM. The TGI (CCRF-CEM leukemia) was over 60400 nM, the GI50 (NCI-H23 lung) was 895 nM and the TGI (NCI-H23 lung) was over 100000 nM. The GI50 (UACC-62 melanoma) was 481 nM and the TGI (UACC-62 melanoma) was 11200 nM.
